# What was measured:
# [1] = molecular target: Polyketide synthase Pks13 (Mycobacterium tuberculosis (strain ATCC 25618 / H37Rv), UniProt I6X8D2); test: Inhibition of Mycobacterium tuberculosis Pks13-TE expressed in Escherichia coli BL21(DE3) pLysS
# [2] = molecular target: Potassium voltage-gated channel subfamily H member 2 (Homo sapiens, UniProt Q12809); test: Inhibition of hERG expressed in CHO cells Qpatch-clamp electrophysiology assay
# Potassium voltage-gated channel subfamily H member 2, sequence (Q12809 whole entry): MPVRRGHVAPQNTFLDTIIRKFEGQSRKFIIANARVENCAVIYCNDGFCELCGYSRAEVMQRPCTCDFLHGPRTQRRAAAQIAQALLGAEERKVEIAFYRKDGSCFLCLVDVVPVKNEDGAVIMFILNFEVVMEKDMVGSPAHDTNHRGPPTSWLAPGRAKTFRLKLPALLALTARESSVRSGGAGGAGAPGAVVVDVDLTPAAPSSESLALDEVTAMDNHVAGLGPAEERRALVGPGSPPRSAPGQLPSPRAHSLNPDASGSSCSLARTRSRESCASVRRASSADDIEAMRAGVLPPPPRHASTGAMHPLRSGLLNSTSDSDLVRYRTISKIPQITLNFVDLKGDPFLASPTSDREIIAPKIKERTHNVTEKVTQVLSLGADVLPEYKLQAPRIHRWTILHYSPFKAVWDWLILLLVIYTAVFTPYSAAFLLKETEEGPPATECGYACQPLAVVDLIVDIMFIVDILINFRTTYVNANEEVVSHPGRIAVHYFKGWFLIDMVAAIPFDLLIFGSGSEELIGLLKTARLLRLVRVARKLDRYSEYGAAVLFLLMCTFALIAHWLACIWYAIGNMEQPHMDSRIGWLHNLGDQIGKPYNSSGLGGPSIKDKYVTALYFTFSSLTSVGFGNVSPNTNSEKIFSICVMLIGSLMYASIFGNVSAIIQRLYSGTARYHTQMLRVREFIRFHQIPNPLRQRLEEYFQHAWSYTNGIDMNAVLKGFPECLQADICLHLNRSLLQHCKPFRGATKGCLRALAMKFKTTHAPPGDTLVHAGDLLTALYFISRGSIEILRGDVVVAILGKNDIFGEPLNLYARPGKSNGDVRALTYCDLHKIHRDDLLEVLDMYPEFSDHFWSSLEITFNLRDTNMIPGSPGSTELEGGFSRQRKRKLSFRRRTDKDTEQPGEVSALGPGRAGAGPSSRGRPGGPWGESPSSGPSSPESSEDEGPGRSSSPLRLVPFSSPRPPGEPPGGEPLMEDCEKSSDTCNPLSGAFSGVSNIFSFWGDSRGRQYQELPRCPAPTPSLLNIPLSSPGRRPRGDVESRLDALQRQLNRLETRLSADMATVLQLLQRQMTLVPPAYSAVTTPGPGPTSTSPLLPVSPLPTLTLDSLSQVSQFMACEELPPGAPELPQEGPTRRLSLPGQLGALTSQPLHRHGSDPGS
# Polyketide synthase Pks13, sequence (I6X8D2 whole entry): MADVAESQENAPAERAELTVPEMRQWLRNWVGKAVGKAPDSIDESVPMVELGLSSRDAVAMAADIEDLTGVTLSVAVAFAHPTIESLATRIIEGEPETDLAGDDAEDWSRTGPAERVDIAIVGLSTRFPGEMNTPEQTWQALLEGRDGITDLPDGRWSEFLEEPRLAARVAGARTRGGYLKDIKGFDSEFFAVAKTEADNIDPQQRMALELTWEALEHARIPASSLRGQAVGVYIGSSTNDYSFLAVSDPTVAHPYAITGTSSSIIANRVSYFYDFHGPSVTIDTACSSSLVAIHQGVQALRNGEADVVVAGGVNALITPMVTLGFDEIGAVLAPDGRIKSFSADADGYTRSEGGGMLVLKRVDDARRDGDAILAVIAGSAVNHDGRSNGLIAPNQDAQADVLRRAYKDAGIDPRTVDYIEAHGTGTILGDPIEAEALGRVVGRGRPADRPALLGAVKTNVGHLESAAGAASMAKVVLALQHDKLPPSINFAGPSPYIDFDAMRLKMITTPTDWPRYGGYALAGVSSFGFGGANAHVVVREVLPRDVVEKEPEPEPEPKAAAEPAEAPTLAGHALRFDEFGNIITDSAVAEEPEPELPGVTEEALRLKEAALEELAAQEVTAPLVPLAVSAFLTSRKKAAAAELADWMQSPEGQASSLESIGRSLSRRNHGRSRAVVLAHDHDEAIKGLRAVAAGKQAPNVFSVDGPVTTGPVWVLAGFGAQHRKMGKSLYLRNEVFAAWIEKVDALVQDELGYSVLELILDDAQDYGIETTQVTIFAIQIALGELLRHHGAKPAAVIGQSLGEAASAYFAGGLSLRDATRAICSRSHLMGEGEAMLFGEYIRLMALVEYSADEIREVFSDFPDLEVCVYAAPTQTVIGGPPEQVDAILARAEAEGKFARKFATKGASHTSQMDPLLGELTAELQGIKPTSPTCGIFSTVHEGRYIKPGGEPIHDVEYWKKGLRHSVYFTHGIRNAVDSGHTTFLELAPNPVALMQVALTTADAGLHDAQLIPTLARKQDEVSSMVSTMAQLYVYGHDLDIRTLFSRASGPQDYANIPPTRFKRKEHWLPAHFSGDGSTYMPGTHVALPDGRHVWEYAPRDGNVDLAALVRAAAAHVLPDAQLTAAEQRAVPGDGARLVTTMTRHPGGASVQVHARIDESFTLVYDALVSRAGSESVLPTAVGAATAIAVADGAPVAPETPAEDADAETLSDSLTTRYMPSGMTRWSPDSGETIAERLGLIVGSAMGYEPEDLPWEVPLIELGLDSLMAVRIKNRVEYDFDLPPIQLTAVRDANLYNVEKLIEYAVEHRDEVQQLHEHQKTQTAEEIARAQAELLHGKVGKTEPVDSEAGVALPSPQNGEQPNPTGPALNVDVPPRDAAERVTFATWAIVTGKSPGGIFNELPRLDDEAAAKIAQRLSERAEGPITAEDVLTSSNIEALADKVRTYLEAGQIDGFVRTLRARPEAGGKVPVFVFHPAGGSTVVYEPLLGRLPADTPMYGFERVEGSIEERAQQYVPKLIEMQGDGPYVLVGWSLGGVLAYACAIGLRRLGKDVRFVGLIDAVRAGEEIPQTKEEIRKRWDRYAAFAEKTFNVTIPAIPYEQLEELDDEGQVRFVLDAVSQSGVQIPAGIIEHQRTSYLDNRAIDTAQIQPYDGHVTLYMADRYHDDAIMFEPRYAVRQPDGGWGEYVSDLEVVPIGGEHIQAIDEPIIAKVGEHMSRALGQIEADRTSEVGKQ
Structure (SMILES),IC50 [1] [µM],IC50 [2] [µM]
O=c1oc2cc(O)ccc2c2oc3ccc4c(c3c12)CN(C1CCCC1)CO4,1.3,0.52
O=c1oc2cc(O)ccc2c2oc3ccc(O)c(CN4CCCCC4)c3c12,–,> 30
O=c1oc2cc(O)ccc2c2oc3ccc(O)c(CN4CCC(F)CC4)c3c12,1.55,–

# — BindingDB's records for doi:10.1016/j.bmcl.2005.01.005 (East China Normal University, 2022)
